Experimental data published in patent publication US20110166066A1, “CATESTATIN (CST) AND ITS VARIANTS FOR TREATMENT OF CARDIOVASCULAR AND METABOLIC DISORDERS” (priority 2008, published 2011).
Entries after “also recorded” stand apart in the source; their conditions may differ. Counter-ions that a name gives are not always drawn. Like-named read-outs stand apart in the source and are kept apart here. No end group written: not given here.

B1: vasostatin: another peptide derived from CgA, inhibited angiogenesis induced by VEGF (peptide, UniProt P10645 19-94, looked up)
Vasostatin-1: LPVNSPMNKGDTEVMKCIVEVISDTLSKPSPMPVSQECFETLRGDERILSILRHQNLLKELQDLALQGAKERAHQQ
modifications: Vasostatin-1

Key:
[1] = test system: Langendorff perfused rat heart; experiment: Isoproterenol stimulated Langendorff heart preparations; conditions: P370L-CST 165 nM, G364S-CST 200 nM; for ISO-induced stimulation of LVP (concentration-response): ISO 0.1 nM to 1 μM, WT-CST 33 and 110 nM
[2] = test system: Langendorff perfused rat heart; experiment: as above; conditions: for Coronary pressure (ISO alone or ISO + peptide) / Inotropism (ISO alone or ISO + peptide) / Lusitropism (ISO alone or ISO + peptide): Table 3, ISO 5 nM; for ISO stimulatory effect on LVP: measured at 5 min
Protocol: Isoproterenol stimulated preparations—Cardiac preparations were stabilized for 20 min with KHs and then perfused with 5 nM ISO for 10 min. ISO was washed-out with KHs. After returning to control conditions, each heart was perfused with KHs containing a single concentration of WT-Cts […] or G364S-Cts (200 nM) with 5 nM ISO for a further 10 min.
To further describe the antagonistic action of either WT-Cts (33 nM), P370L-Cts (110 nM) or G364S-Cts (200 nM) against ISO-dependent stimulation, dose-response curves were generated by perfusing the heart preparations with KHs enriched with increasing concentrations of ISO (0.1 nM to 1 μM) alone. These curves were then compared to those obtained by exposing other cardiac preparations to the same perfusion medium containing increasing concentrations of ISO (0.1 nM to 1 μM) plus a single concentration of either WT-Cts (33 nM) or P370L-Cts (110 nM) or G364S-Cts (200 nM).
Statistics—Data are expressed as the mean±SEM. Curve fitting was accomplished in the program Kaleidagraph (Synergy Software, Reading, Pa.). Peptide EC50 and IC50 values were interpolated as the concentration that achieved 50% stimulation and inhibition, respectively. For analysis of phosphorylated proteins, levels were quantified using Bio-Rad QuantifyOne and volumes of phosphorylated proteins were divided by the levels of non-phosphorylated proteins to calculate fold activation. Stimulation of protein activity was expressed as fold increase over vehicle-treated control. The means and S.E.M. were calculated for each treatment. Multiple comparisons were made using either one-way ANOVA followed by Bonferroni's post-hoc test or two-way ANOVA. Statistical significance was concluded at p<0.05. Statistics were computed with the program InStat (GraphPad Software, Inc., San Diego, Calif.).
To characterize the inhibitory action of either WT-CST (11, 33 or 110 nM), G364S-CST (200 nM) or P370L-CST (110 nM) toward ISO-dependent stimulation of cardiac function, heart preparations were perfused with KHs containing increasing concentrations of ISO (0.1 nM to 1 μM) either alone or in combination with one of the three CST variants.

[3] = test system: WT and Chga knockout (KO) mice; experiment: Response to PE or SNP and baroreflex sensitivity in unconscious mice; type: in vivo; conditions: for Increase in SBP: 0.005 μg/g bw iv
Protocol: Unconscious mice. Surgical procedures for hemodynamic measurements: Hemodynamic evaluation in both WT and KO mice was performed under general anesthesia [ketamine (100 mg/kg) and xylazine (2.5 mg/kg)] while connected to a ventilator. LV pressure was monitored by Millar micromanometer catheter of size 1.4 French (0.46 mm; Millar Instruments, Houston, Tex.); it was inserted into the LV where phasic and mean pressure was continuously monitored (Gould, Cleveland, Ohio). A venous catheter (MicroRenathane tube MRE-033; Braintree Laboratories, Braintree, Mass.) is implanted on right femoral vein for injection of peptide and other reagents. All physiologic signals were acquired by WINDAQ (Dataq Instruments, Akron, Ohio) and analyzed by BP-Analysis software (developed for own laboratory).
Assessment of baroreflex sensitivity (BRS): BRS (in milliseconds per mmHg) was assessed by both high-pressure [phenylephrine (PE) bolus] and low-pressure [sodium nitroprusside (SNP) bolus] stimuli in unconscious mice. Although conscious animals provide optimal physiological data, a host of undesirable signals are triggered by physical activities, and sleep cycle alterations in behavioral state. Therefore, we have chosen to conduct the experiments in unconscious mice to avoid some of the pitfalls encountered in awake animals. The absolute changes of HR in response to changes in SBP induced by PE or SNP were subjected to linear regression analysis to determine BRS. To test the effect of CST on BRS in KO mice, CST was injected (40 μg/g bw iv) 30 min before the injection of PE or SNP through the catheter implanted into the femoral vein.
BRS to high-pressure stimulus. High pressure BRS was evaluated by recording diminution of HR in response to PE-induced hypertension. Changes in SBP and HR were recorded continuously for 0.5 min after a bolus injection of PE (0.005 μg/g bw iv). This dose was selected from a preliminary dose-response study (0.001-0.05 μg/g bw iv).
BRS to low-pressure stimulus. This was evaluated by recording increments in HR in response to SNP-induced fall in BP. Changes in SBP and HR were recorded continuously for 0.5 min after a bolus injection of SNP (0.05 μg/g bw iv). This dose was selected from a preliminary dose-response study (0.01-0.1 μg/g bw iv).

[4] = test system: Langendorff perfused rat heart; experiment: ET-1 stimulated Langendorff heart preparations; conditions: for ET-1 induced positive inotropism: ET-1 1 nM, WT-CST 33 nM, P370L-CST 110 nM, G364S-CST 200 nM
Protocol: ET-1 stimulated preparations—Hearts, stabilized for 20 min with KHs, were perfused for 10 min with ET-1 (1 nM) and then washed-out with KHs. After returning to control conditions, each heart was perfused with KHs containing a single concentration of either WT-Cts (33 nM), P370L-Cts (110 nM) or G364S-Cts (200 nM) plus 1 nM ET-1 for a further 10 min.

[5] = test system: Langendorff perfused rat heart; experiment: Langendorff perfused rat heart, basal conditions: concentration-response of catestatin peptides; conditions: for Activity rank order / Inotropism / Lusitropism: basal conditions, Table 2
Text: Animals-Male Wistar rats (Morini, Bologna, Italy S.P.A.) weighing 180-250 g were housed (three per cage) in a ventilated cage rack system under standard conditions. Animals had food and water access ad libitum. The investigation conforms to the Guide for the Care and Use of Laboratory Animals, according to NIH Publication No. 85-23, revised 1996. Isolated heart preparation-Rats were anesthetized with ethyl carbamate (2 g/Kg rat, i.p.), the hearts rapidly excised and then transferred in ice-cold buffered Krebs-Henseleit solution (KHs). As previously described (23), the aorta was immediately cannulated with a glass cannula and connected to Langendorff apparatus to start perfusion at constant flow-rate (12 ml/min). Briefly, the apex of the left ventricle (LV) was pierced to avoid fluid accumulation. A water-filled latex balloon, connected to a pressure transducer ([…], Inc. USA), was inserted through mitral valve into the LV allowing isovolumic contractions and continuous mechanical parameters recording. Another pressure transducer located just above the aorta recorded coronary pressure (CP). […] Hemodynamic parameters were assessed using a PowerLab data acquisition system and analysed using Chart software (both purchased by ADInstruments, Basile, Italy). […] Curve fitting was accomplished in the program Kaleidagraph (Synergy Software, Reading, Pa.). Peptide EC50 and IC50 values were interpolated as the concentration that achieved 50% stimulation and inhibition, respectively. For analysis of phosphorylated proteins, levels were quantified using Bio-Rad QuantifyOne and volumes of phosphorylated proteins were divided by the levels of non-phosphorylated proteins to calculate fold activation. Stimulation of protein activity was expressed as fold increase over vehicle-treated control. The means and S.E.M. were calculated for each treatment. Multiple comparisons were made using either one-way ANOVA followed by Bonferroni's post-hoc test or two-way ANOVA. Statistical significance was concluded at p<0.05. Statistics were computed with the program InStat (GraphPad Software, Inc., San Diego, Calif.).

[6] = test system: sympathochromaffin cells; conditions: in vitro; cited from earlier work
[7] = test system: ECs; conditions: cited from earlier work

| Molecule | Coronary pressure (ISO alone or ISO + peptide) [2] | Inotropism (ISO alone or ISO + peptide) [2] | Lusitropism (ISO alone or ISO + peptide) [2] | ET-1 induced positive inotropism [4] | ISO-induced stimulation of LVP (concentration-response) [1] | Activity rank order [5] | Inotropism [5] | Lusitropism [5] | ISO induced coronary dilation ([2]; ISO 5 nM) | ISO-induced positive lusitropism ([2]; ISO 5 nM) | Rank order of potency against ISO ([2]; ISO 5 nM) | ISO stimulatory effect on LVP ([2]; ISO 5 nM) | Rank order of potency, inhibition of catecholamine secretion [6] | other results |
| --- | --- | --- | --- | --- | --- | --- | --- | --- | --- | --- | --- | --- | --- | --- |
| CC(C)NCC(O)c1ccc(O)c(O)c1 (centres unmarked) [ISO, Isoproterenol hydrochloride, reference compound] | Vasodilation | Positive | Positive | – | – | – | – | – | – | – | – | – | – | EC50 ([1]; Rattus norvegicus, Table 3, values match WT-CST 110 nM, read-out: EC50 (ISO on LVP, alone or + peptide) (converted)): 2.14 nM; Effect of ISO alone on LVP ([2]; 5 nM to 1 μM): increased LVP significantly; EC50 ([2]; Rattus norvegicus, ISO alone, read-out: EC50 of ISO-mediated LVP stimulation (converted)): 2.14 nM |
| CNC[C@H](O)c1cccc(O)c1 [PE, phenylephrine] | – | – | – | – | – | – | – | – | – | – | – | – | – | PE-induced bradycardia ([3]; KO mice): completely abolished; Increase in SBP ([3]; KO mice): 45.6 mmHg; Decrease in HR ([3]; WT mice, 0.005 μg/g bw): 26 bpm; Increase in SBP ([3]; WT mice): 34.1 mmHg |
| G364S-CST: SEQ ID NO. 4 SSMKLSFRARAYSFRGPGPQL, naturally occurring Gly364Ser variant of catestatin (listed as Homo sapiens) | Abolished | Abolished | Abolished | blocked | significantly inhibited | Activity: WT-CST > P370L-CST > G364S-CST | No effect | No effect | blocked | blocked | Order of potency: WT-CST > G364S-CST > P370L-CST | abolished | Pro370Leu>wild-type (WT)>Gly364Ser>Arg374Gln; also recorded: Pro370Leu>wildtype (WT)>Gly364Ser>Arg374Gln | Other parameters tested (HR, LVP, +(LVdP/dT)max, −(LVdP/dT)max) ([5]; 11 to 200 nM): unaffected; Effect on RPP ([5]; even at 33 nM): significant increase; Block of ISO-dependent +(LVdP/dT)max ([2]; ISO 5 nM): > 100%; ISO-dependent decrease of T/−t ([2]; ISO 5 nM): blocked |
| P370L-CST: SEQ ID NO. 3 SSMKLSFRARAYGFRGPGLQL, naturally occurring Pro370Leu variant of catestatin (listed as Homo sapiens) | No effect | Abolished | Abolished | blocked | significantly inhibited | Activity: WT-CST > P370L-CST > G364S-CST | Negative | No effect | remaining unchanged | failed to modulate | Order of potency: WT-CST > G364S-CST > P370L-CST | abolished | Pro370Leu>wild-type (WT)>Gly364Ser>Arg374Gln; also recorded: Pro370Leu>wildtype (WT)>Gly364Ser>Arg374Gln | Concentration of maximum decrease in +(LVdP/dT)max [5]: 200 nM; Concentration of maximum decrease in LVP and RPP [5]: 200 nM; Effect on −(LVdP/dT)max [5]: marked decrease; Effect on CP (coronary pressure) ([5]; basal): not accompanied by changes; Effect on HR ([5]; basal, WT-Cts significant at 33 nM): not accompanied by changes; Inotropic effect (LVP, RPP) ([5]; from 110 to 200 nM): negative inotropism; Effect on +(LVdP/dT)max ([5]; starting from 110 nM): marked decrease |
| endothelin-1 (CSCSSLMDKECVYFCHLDIIW; ends and bridges not checked; cysteine pairing not given here; UniProt P05305 53-73, looked up) [ET-1, endothelin-1, purchased from Sigma, reference compound] | – | – | – | – | – | – | – | – | – | – | – | – | – | Effect on LVP and +(LVdP/dT)max ([4]; 1 nM): increased; Effect on coronary constriction ([4]; ET-1 alone 1 and 10 nM): significant increase in coronary constriction |
| B1 | – | – | – | – | – | – | – | – | – | – | – | – | – | Concentration at which effects were found [7]: 330 nM |
